Data taken from article PMC6791383, “A side-by-side evaluation of [^18F]FDOPA enantiomers for non-invasive detection of neuroendocrine tumors by positron emission tomography” (Oncotarget, 2019).

Legend:
PC12 cells = experiment: In vitro uptake (binding) assay in PC12 cells; assay type: cell-based; details: 30mins incubation, 1 million cells
Method: (§1) Both [^18F]FDOPA enantiomers were initially assessed in vitro in all NET cells.
(§2) In vitro binding assays were carried out, in triplicate, in PBS with 0.5% FBS, for 30mins at ambient temperatures using 1 million cells and repeated three times. Blocking studies were carried out using 10meq of the commercial LAT1 inhibitor, 2-Aminobicyclo[2.2.1]heptane-2-carboxylic acid (TOCRIS, MN, USA). Following incubation with each tracer, cells were rinsed three times with cold PBS prior to being counted on an automated gamma counter (1282 Compugamma CS; Pharmacia/LKBNuclear, Inc.) along with external standards. Obtained counts were converted into percentage incubated dose per million cells based on normalization to external standards. Experiments were performed in triplicate and repeated three times.

STC-1 cells = experiment: In vitro uptake (binding) assay in STC-1 cells; assay type: cell-based; details: 30mins incubation, 1 million cells, % incubated dose/million cells
Method: as §1, §2

TGP52 cells = experiment: In vitro uptake (binding) assay in TGP52 cells; assay type: cell-based; details: 30mins incubation, 1 million cells, % incubated dose/million cells
Method: as §1, §2

TGP61 cells = experiment: In vitro uptake (binding) assay in TGP61 cells; assay type: cell-based; details: 30mins incubation, 1 million cells, % incubated dose/million cells
Method: as §1, §2

PC12 xenografts [1] = experiment: In vivo PET-CT quantitative image analysis, PC12 xenografts; details: PC12 tumors, NSG mice, 9MBq
Method: (§3) All animal studies were carried out according to regulations set forth and approved by the Johns Hopkins Animal Care and Use Committee. Female, 6- to 8-weeks-old immunodeficient NOD scid gamma (NSG) mice were subcutaneously inoculated with 1 million PC12, STC-1 or COLO-320 cells in […] of Hank’s balanced salt solution in the top flank. Tumors of 4–6 mm in diameter (typically 14-21 days post inoculation) were utilized for in vivo imaging or ex vivo biodistribution studies.
(§4) Mice (n=4) were injected with 9MBq (250μCi) of each tracer in 150μL of saline intravenously and anesthetized with 3% isoflurane prior to being placed on the scanner bed. Mice were kept warm with an external light source and maintained at 1% isoflurane levels while being scanned. PET imaging (2 beds; 10 min per bed) was carried out using an ARGUS small-animal PET/CT scanner (Sedecal). A CT scan (512 projections) was obtained at the end of each PET scan for anatomical co-registration. For in vivo blocking experiments, mice were injected with 10meq of LAT1 inhibitor. PET data were reconstructed using the 2-dimensional ordered subsets-expectation maximization algorithm (2D-OSEM) and corrected for dead time and radioactive decay. Data visualization and image generation were carried out using Amira 2019.1 (ThermoFisher Scientific).
(§5) Quantitative in vivo image analysis was carried out in AMIDE (SourceForge) 1.0.4 utilizing ellipsoid region-of-interest volume integrations with 3 slices entailing a depth of 1.9 mm per slice. The %ID per cc values were calculated based on a calibration factor obtained from a phantom (known radioactive quantity in a known volume).

STC-1 xenografts [2] = experiment: In vivo PET-CT quantitative image analysis, STC-1 xenografts; details: STC-1 tumors, NSG mice, 9MBq
Method: as §3, §4, §5

COLO-320 xenografts = experiment: In vivo PET-CT quantitative image analysis, COLO-320 xenografts; details: COLO-320 tumors, NSG mice, 9MBq
Method: as §3, §4, §5

STC-1 xenografts [3] = experiment: Ex vivo biodistribution in NSG mice bearing STC-1 xenografts; details: for Biodistribution, Bladder / Biodistribution, Blood / Biodistribution, Bone / Biodistribution, Brain / Biodistribution, Fat / Biodistribution, Heart / Biodistribution, Kidneys / Biodistribution, Liver / Biodistribution, Lungs / Biodistribution, Muscle / Biodistribution, Pancreas / Biodistribution, Small Intestines / Biodistribution, Spleen / Biodistribution, Stomach / Biodistribution, Tumor: STC-1 xenograft NSG mice, 1.5MBq i.v.
Method: as §3
(§6) Mice (n=5 per group) were intravenously injected with 1.5MBq (40μCi) of each tracer in 150μL of saline. Ex vivo biodistribution studies were performed at 30min and 120min time points after tracer administration. Blood, liver, spleen, heart, lungs, kidneys, small intestines, stomach, muscle, fat, bone, bladder, brain and tumor tissues were retrieved, weighed, and counted in an automated gamma counter (1282 Compugamma CS). Percentage injected dose per gram (%ID/g) values were calculated based on normalization to external standards, counted in triplicate, and accounted for signal-decay correction.

PC12 xenografts [4] = experiment: Ex vivo biodistribution in NSG mice bearing PC12 xenografts; details: for Biodistribution, Bladder / Biodistribution, Blood / Biodistribution, Bone / Biodistribution, Brain / Biodistribution, Fat / Biodistribution, Heart / Biodistribution, Kidneys / Biodistribution, Liver / Biodistribution, Lungs / Biodistribution, Muscle / Biodistribution, Pancreas / Biodistribution, Small Intestines / Biodistribution, Spleen / Biodistribution, Stomach / Biodistribution, Tumor: PC12 xenograft NSG mice, 1.5MBq i.v.
Method: as §3, §6

[5] = system: NET xenografts (STC-1, PC12, COLO-320); experiment: Ex vivo biodistribution, across all NET mouse models; assay type: in vivo, mice; details: for brain accumulation, average in all NET mice: average over STC-1, COLO-320 and PC12 mice; for retention in small intestines, fold lower than L-[^18F]FDOPA: all NET models
Method: as §3, §6

N[C@H](Cc1cc(O)c(O)cc1[18F])C(=O)O [D-[^18F]FDOPA, 3,4-dihydroxy-6-[^18F]fluoro-D-phenylalanine]
in vitro uptake (PC12 cells): 2.97±0.24 % (incubated dose/million cells) | in vitro uptake (STC-1 cells): 2.41±0.17% | in vitro uptake (TGP52 cells): 3.18±0.19% | in vitro uptake (TGP61 cells): 3.11±0.41% | tumor uptake, quantitative PET image analysis (PC12 xenografts [1]; 30min post i.v. injection): 8.87±0.31 %ID/cc | tumor uptake, quantitative PET image analysis (PC12 xenografts [1]; 120min post i.v. injection): 3.96±0.34 %ID/cc | tumor uptake, quantitative PET image analysis (STC-1 xenografts [2]; 30min post i.v. injection): 12.01±1.61 %ID/cc | tumor uptake, quantitative PET image analysis (STC-1 xenografts [2]; 120min post i.v. injection): 3.34±0.32 %ID/cc | tumor uptake, quantitative PET image analysis (COLO-320 xenografts; 30min post i.v. injection): 7.20±0.35 %ID/cc | tumor uptake, quantitative PET image analysis (COLO-320 xenografts; 120min post i.v. injection): 6.93±0.80 %ID/cc | pancreatic retention, fold lower compared to L-[^18F]FDOPA (STC-1 xenografts [3]; STC-1 mice, 120min p.i.): approximately 2 fold | Biodistribution, Bladder (STC-1 xenografts [3]; 30min p.i.): 20.49 %ID/g | Biodistribution, Blood (STC-1 xenografts [3]; 30min p.i.): 4.31 %ID/g | Biodistribution, Bone (STC-1 xenografts [3]; 30min p.i.): 3.94 %ID/g | Biodistribution, Brain (STC-1 xenografts [3]; 30min p.i.): 0.55 %ID/g | Biodistribution, Fat (STC-1 xenografts [3]; 30min p.i.): 2.27 %ID/g | Biodistribution, Heart (STC-1 xenografts [3]; 30min p.i.): 2.52 %ID/g | Biodistribution, Kidneys (STC-1 xenografts [3]; 30min p.i.): 12.32 %ID/g | Biodistribution, Liver (STC-1 xenografts [3]; 30min p.i.): 3.85 %ID/g | Biodistribution, Lungs (STC-1 xenografts [3]; 30min p.i.): 6.63 %ID/g | Biodistribution, Muscle (STC-1 xenografts [3]; 30min p.i.): 1.62 %ID/g | Biodistribution, Pancreas (STC-1 xenografts [3]; 30min p.i.): 61.64 %ID/g | Biodistribution, Small Intestines (STC-1 xenografts [3]; 30min p.i.): 10.28 %ID/g | Biodistribution, Spleen (STC-1 xenografts [3]; 30min p.i.): 17.41 %ID/g | Biodistribution, Stomach (STC-1 xenografts [3]; 30min p.i.): 9.37 %ID/g | Biodistribution, Tumor (STC-1 xenografts [3]; 30min p.i.): 6.92 %ID/g | Biodistribution, Bladder (STC-1 xenografts [3]; 120min p.i.): 7.51 %ID/g | Biodistribution, Blood (STC-1 xenografts [3]; 120min p.i.): 1.49 %ID/g | Biodistribution, Bone (STC-1 xenografts [3]; 120min p.i.): 5.28 %ID/g | Biodistribution, Brain (STC-1 xenografts [3]; 120min p.i.): 1.30 %ID/g | Biodistribution, Fat (STC-1 xenografts [3]; 120min p.i.): 1.14 %ID/g | Biodistribution, Heart (STC-1 xenografts [3]; 120min p.i.): 1.58 %ID/g | Biodistribution, Kidneys (STC-1 xenografts [3]; 120min p.i.): 2.30 %ID/g | Biodistribution, Liver (STC-1 xenografts [3]; 120min p.i.): 1.60 %ID/g | Biodistribution, Lungs (STC-1 xenografts [3]; 120min p.i.): 2.34 %ID/g | Biodistribution, Muscle (STC-1 xenografts [3]; 120min p.i.): 2.66 %ID/g | Biodistribution, Pancreas (STC-1 xenografts [3]; 120min p.i.): 9.75 %ID/g | Biodistribution, Small Intestines (STC-1 xenografts [3]; 120min p.i.): 3.80 %ID/g | Biodistribution, Spleen (STC-1 xenografts [3]; 120min p.i.): 0.61 %ID/g | Biodistribution, Stomach (STC-1 xenografts [3]; 120min p.i.): 4.84 %ID/g | Biodistribution, Tumor (STC-1 xenografts [3]; 120min p.i.): 3.15 %ID/g | pancreatic retention, fold lower compared to L-[^18F]FDOPA (PC12 xenografts [4]; PC12 mice, 120min p.i.): ~11 fold | Biodistribution, Bladder (PC12 xenografts [4]; 30min p.i.): 3.96 %ID/g | Biodistribution, Blood (PC12 xenografts [4]; 30min p.i.): 2.52 %ID/g | Biodistribution, Bone (PC12 xenografts [4]; 30min p.i.): 2.71 %ID/g | Biodistribution, Brain (PC12 xenografts [4]; 30min p.i.): 0.19 %ID/g | Biodistribution, Fat (PC12 xenografts [4]; 30min p.i.): 0.28 %ID/g | Biodistribution, Heart (PC12 xenografts [4]; 30min p.i.): 1.28 %ID/g | Biodistribution, Kidneys (PC12 xenografts [4]; 30min p.i.): 5.30 %ID/g | Biodistribution, Liver (PC12 xenografts [4]; 30min p.i.): 3.05 %ID/g | Biodistribution, Lungs (PC12 xenografts [4]; 30min p.i.): 3.53 %ID/g | Biodistribution, Muscle (PC12 xenografts [4]; 30min p.i.): 0.79 %ID/g | Biodistribution, Pancreas (PC12 xenografts [4]; 30min p.i.): 28.22 %ID/g | Biodistribution, Small Intestines (PC12 xenografts [4]; 30min p.i.): 3.76 %ID/g | Biodistribution, Spleen (PC12 xenografts [4]; 30min p.i.): 3.99 %ID/g | Biodistribution, Stomach (PC12 xenografts [4]; 30min p.i.): 2.52 %ID/g | Biodistribution, Tumor (PC12 xenografts [4]; 30min p.i.): 2.96 %ID/g | Biodistribution, Bladder (PC12 xenografts [4]; 120min p.i.): 5.93 %ID/g | Biodistribution, Blood (PC12 xenografts [4]; 120min p.i.): 0.48 %ID/g | Biodistribution, Bone (PC12 xenografts [4]; 120min p.i.): 4.84 %ID/g | Biodistribution, Brain (PC12 xenografts [4]; 120min p.i.): 0.23 %ID/g | Biodistribution, Fat (PC12 xenografts [4]; 120min p.i.): 0.34 %ID/g | Biodistribution, Heart (PC12 xenografts [4]; 120min p.i.): 0.84 %ID/g | Biodistribution, Kidneys (PC12 xenografts [4]; 120min p.i.): 1.23 %ID/g | Biodistribution, Liver (PC12 xenografts [4]; 120min p.i.): 0.73 %ID/g | Biodistribution, Lungs (PC12 xenografts [4]; 120min p.i.): 2.04 %ID/g | Biodistribution, Muscle (PC12 xenografts [4]; 120min p.i.): 1.02 %ID/g | Biodistribution, Pancreas (PC12 xenografts [4]; 120min p.i.): 3.42 %ID/g | Biodistribution, Small Intestines (PC12 xenografts [4]; 120min p.i.): 1.90 %ID/g | Biodistribution, Spleen (PC12 xenografts [4]; 120min p.i.): 1.86 %ID/g | Biodistribution, Stomach (PC12 xenografts [4]; 120min p.i.): 1.36 %ID/g | Biodistribution, Tumor (PC12 xenografts [4]; 120min p.i.): 1.44 %ID/g | brain accumulation, average in all NET mice ([5]; 30min p.i.): 0.31±0.05 %ID/g | brain accumulation, average in all NET mice ([5]; 120min p.i.): 0.34±0.08 %ID/g | hepatic retention, fold lower than L-[^18F]FDOPA ([5]; NET models): up to 4 fold | renal retention, fold lower than L-[^18F]FDOPA ([5]; NET models): up to 4 fold | retention in small intestines, fold lower than L-[^18F]FDOPA ([5]; 30min): up to 4 fold | retention in small intestines, fold lower than L-[^18F]FDOPA ([5]; 120min p.i.): up to 7 fold
